These results are taken from patent US9302988B2, “Fluoromethyl-substituted pyrrole carboxamides” (GRÜNENTHAL GMBH, priority 2012, dated 2016).

For the test, the target named is T1, Human CaV2.2 channels (Homo sapiens, UniProt Q00975).
T1 construct: expressed in transfected cells
T1 sequence (Q00975 whole entry): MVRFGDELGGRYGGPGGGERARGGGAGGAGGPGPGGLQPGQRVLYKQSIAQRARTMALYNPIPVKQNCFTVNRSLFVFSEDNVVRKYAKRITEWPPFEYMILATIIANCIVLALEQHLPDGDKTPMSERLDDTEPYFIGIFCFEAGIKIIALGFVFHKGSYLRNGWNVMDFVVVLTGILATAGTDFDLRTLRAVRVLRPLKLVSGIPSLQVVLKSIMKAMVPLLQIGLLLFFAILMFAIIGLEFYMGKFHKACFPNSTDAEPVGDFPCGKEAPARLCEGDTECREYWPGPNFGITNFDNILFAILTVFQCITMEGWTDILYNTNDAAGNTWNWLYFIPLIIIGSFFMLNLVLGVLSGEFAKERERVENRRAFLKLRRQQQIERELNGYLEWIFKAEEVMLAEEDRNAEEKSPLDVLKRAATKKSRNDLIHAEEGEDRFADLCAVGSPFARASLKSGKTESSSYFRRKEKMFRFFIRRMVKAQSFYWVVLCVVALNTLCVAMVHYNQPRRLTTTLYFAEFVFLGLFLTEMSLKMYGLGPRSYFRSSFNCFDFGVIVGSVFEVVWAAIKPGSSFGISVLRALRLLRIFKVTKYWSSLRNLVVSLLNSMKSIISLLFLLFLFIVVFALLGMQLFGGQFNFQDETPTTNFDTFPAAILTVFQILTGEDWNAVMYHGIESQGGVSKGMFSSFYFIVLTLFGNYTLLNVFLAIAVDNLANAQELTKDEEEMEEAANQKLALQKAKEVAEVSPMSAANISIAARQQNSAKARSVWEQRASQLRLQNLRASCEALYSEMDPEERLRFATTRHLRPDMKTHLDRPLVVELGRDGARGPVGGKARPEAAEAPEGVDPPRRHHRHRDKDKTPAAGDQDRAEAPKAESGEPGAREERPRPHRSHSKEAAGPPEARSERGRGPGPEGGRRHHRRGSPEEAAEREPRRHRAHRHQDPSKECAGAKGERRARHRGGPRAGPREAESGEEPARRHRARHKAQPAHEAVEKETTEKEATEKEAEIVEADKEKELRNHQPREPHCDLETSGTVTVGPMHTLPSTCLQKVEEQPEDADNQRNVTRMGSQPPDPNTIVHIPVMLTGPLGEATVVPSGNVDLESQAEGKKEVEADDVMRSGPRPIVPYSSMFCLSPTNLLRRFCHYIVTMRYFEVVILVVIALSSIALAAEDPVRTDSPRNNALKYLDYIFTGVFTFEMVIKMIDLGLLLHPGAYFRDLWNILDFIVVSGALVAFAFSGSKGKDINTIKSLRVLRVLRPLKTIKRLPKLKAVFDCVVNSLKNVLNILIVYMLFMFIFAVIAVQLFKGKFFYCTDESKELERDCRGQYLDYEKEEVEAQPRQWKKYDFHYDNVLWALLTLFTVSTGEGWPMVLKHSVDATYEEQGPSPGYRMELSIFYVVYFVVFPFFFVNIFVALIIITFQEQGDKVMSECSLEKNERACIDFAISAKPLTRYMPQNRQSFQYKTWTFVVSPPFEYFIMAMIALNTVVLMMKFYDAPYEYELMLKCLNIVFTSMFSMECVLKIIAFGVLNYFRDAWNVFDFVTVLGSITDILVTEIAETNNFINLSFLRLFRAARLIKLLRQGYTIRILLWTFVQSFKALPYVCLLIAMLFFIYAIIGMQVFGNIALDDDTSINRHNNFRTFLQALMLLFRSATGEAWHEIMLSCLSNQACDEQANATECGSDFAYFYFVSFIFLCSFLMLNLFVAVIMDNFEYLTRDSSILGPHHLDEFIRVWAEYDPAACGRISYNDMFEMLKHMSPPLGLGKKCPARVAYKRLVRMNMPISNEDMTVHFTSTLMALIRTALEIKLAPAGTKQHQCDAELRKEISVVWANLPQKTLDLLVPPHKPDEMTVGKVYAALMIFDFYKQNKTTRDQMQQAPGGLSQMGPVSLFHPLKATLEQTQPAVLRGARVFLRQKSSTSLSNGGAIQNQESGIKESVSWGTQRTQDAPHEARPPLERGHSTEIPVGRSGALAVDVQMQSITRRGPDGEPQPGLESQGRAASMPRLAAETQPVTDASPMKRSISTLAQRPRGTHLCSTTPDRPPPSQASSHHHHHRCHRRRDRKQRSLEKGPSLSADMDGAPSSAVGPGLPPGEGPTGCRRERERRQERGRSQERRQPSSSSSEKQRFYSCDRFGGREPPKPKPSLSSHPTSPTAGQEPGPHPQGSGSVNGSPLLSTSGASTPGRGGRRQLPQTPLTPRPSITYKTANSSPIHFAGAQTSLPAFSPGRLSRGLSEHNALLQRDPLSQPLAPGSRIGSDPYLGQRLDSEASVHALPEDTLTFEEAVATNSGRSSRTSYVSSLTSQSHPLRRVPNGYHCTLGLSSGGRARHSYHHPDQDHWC
T1 sequence (P54289 25-1103, further chain): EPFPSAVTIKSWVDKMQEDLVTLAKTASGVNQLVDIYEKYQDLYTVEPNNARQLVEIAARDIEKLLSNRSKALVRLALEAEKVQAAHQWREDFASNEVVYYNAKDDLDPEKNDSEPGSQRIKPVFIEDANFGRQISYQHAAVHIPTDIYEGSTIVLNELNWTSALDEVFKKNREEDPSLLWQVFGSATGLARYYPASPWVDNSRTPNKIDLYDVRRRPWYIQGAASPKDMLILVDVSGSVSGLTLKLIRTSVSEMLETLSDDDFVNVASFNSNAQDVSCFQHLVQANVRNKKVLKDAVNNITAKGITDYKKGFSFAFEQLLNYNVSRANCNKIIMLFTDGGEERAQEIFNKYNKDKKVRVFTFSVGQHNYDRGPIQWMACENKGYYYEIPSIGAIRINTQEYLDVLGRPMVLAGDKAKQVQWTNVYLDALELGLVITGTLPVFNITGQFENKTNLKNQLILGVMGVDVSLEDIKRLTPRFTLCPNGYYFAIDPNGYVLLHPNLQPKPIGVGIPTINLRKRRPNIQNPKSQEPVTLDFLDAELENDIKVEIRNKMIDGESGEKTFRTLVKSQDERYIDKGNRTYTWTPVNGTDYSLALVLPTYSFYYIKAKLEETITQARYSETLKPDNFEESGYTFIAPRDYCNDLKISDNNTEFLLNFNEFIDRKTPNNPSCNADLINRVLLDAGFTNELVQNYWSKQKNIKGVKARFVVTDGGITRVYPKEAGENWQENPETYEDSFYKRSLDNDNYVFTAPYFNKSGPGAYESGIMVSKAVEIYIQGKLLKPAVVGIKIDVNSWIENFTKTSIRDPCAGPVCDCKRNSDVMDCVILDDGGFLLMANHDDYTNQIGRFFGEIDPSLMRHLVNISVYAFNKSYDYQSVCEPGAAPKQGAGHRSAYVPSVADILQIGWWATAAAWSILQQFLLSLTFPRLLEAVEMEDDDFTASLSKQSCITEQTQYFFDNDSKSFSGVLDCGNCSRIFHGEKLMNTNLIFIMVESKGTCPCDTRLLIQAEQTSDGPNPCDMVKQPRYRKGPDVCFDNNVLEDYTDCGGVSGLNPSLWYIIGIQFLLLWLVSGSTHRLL
T1 sequence (P54284 whole entry, further chain): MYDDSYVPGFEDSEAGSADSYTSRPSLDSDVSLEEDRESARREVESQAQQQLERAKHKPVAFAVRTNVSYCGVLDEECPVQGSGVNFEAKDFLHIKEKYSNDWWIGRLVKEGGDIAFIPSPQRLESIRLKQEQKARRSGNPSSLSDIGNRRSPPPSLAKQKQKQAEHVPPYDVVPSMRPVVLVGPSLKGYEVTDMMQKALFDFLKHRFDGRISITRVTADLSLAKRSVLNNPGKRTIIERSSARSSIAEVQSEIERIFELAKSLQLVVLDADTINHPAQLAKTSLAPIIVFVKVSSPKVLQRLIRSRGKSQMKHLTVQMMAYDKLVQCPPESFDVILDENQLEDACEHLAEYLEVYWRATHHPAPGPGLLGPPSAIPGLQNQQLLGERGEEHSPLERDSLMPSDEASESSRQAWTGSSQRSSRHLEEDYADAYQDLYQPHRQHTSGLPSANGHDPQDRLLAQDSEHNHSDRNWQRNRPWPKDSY
Nature of the test: Fluorescent assay for CaV2.2 channels using potassium depolarization to induce channel opening (FLIPR, Fluo-4). It counts as cell-based. The note with it: 3 μM test compound, 30 mM KCl, HEK293 cells stably expressing human CaV2.2; read-out: %-Inhib (CaV2.2) @3 μM @30 mM KCl. In a few lines:
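Channel block was read as the baseline-normalized peak Ca²⁺ signal (Fluo-4, 480/535 nm) after a high-KCl depolarizing addition (210 mM KCl buffer). Beforehand, compound sat 15 min at 25 °C on HEK293 cells carrying human CaV2.2, α2δ/β subunits and Kir2.3, in pH 7.4 buffer with 30 mM KCl.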
For the molecule `Cc1c(-c2ccc(OC(F)(F)F)cc2)c(C(=O)N2CCOC(C)(C)C2)n(Cc2ccccc2)c1C(F)(F)F` [SC-242, [1-Benzyl-4-methyl-5-(trifluoromethyl)-3-[4-(trifluoromethyloxy)-phenyl]-1H-pyrrol-2-yl]-(2,2-dimethyl-morpholin-4-yl)-methanone], the inhibition at 3 µM was in the range of 75 to 95%.

On to `Cc1c(-c2ccc(Cl)c(F)c2)c(C(=O)N(C)CC(C)(C)CO)n(Cc2ccccc2)c1C(F)(F)F` [SC-243, 1-Benzyl-3-(4-chloro-3-fluoro-phenyl)-N-(3-hydroxy-2,2-dimethyl-propyl)-N,4-dimethyl-5-(trifluoromethyl)-1H-pyrrole-2-carboxylic acid amide], for which the inhibition at 3 µM is over 95%.

As for `Cc1c(-c2ccc(Cl)c(F)c2)c(C(=O)N(C)CCS(C)(=O)=O)n(Cc2ccccc2)c1C(F)(F)F` [SC-244, 1-Benzyl-3-(4-chloro-3-fluoro-phenyl)-N,4-dimethyl-N-(2-methylsulfonyl-ethyl)-5-(trifluoromethyl)-1H-pyrrole-2-carboxylic acid amide], the inhibition at 3 µM is 75 to 95%.

As to `Cc1c(-c2ccc(Cl)c(F)c2)c(C(=O)N(C)C2CCOCC2)n(Cc2ccccc2)c1C(F)(F)F` [SC-245, 1-Benzyl-3-(4-chloro-3-fluoro-phenyl)-N,4-dimethyl-N-tetrahydro-pyran-4-yl-5-(trifluoromethyl)-1H-pyrrole-2-carboxylic acid amide], the inhibition at 3 µM is over 95%.

With `Cc1c(-c2ccc(Cl)c(F)c2)c(C(=O)N(C)C2CC2)n(Cc2ccccc2)c1C(F)(F)F` [SC-246, 1-Benzyl-3-(4-chloro-3-fluoro-phenyl)-N-cyclopropyl-N,4-dimethyl-5-(trifluoromethyl)-1H-pyrrole-2-carboxylic acid amide], the inhibition at 3 µM fell in the range of 75 to 95%.

As for `Cc1c(-c2ccc(Cl)c(F)c2)c(C(=O)N2CC(O)C2)n(Cc2ccccc2)c1C(F)(F)F` [SC-247, [1-Benzyl-3-(4-chloro-3-fluoro-phenyl)-4-methyl-5-(trifluoromethyl)-1H-pyrrol-2-yl]-(3-hydroxy-azetidin-1-yl)-methanone], the inhibition at 3 µM is 40 to 75%.

For `Cc1c(-c2ccc(Cl)c(F)c2)c(C(=O)N(C)C(C)(C)CO)n(Cc2ccccc2)c1C(F)(F)F` [SC-248, 1-Benzyl-3-(4-chloro-3-fluoro-phenyl)-N-(2-hydroxy-1,1-dimethyl-ethyl)-N,4-dimethyl-5-(trifluoromethyl)-1H-pyrrole-2-carboxylic acid amide], the inhibition at 3 µM is 75 to 95%.

For `Cc1c(-c2ccc(Cl)c(F)c2)c(C(=O)N2CCOC(C)(C)C2)n(Cc2ccccc2)c1C(F)(F)F` [SC-249, [1-Benzyl-3-(4-chloro-3-fluoro-phenyl)-4-methyl-5-(trifluoromethyl)-1H-pyrrol-2-yl]-(2,2-dimethyl-morpholin-4-yl)-methanone], the inhibition at 3 µM was 75 to 95%.

In the case of `Cc1c(-c2ccc(Cl)c(F)c2)c(C(=O)N(C)CC(C)(C)C)n(Cc2ccccc2)c1C(F)(F)F` [SC-250, 1-Benzyl-3-(4-chloro-3-fluoro-phenyl)-N-(2,2-dimethyl-propyl)-N,4-dimethyl-5-(trifluoromethyl)-1H-pyrrole-2-carboxylic acid amide], the inhibition at 3 µM was in the range of 40 to 75%.

As for `Cc1c(-c2ccc(F)c(Cl)c2)c(C(=O)N(C)CC(C)(C)CO)n(Cc2ccccc2)c1C(F)(F)F` [SC-251, 1-Benzyl-3-(3-chloro-4-fluoro-phenyl)-N-(3-hydroxy-2,2-dimethyl-propyl)-N,4-dimethyl-5-(trifluoromethyl)-1H-pyrrole-2-carboxylic acid amide], the inhibition at 3 µM was 75 to 95%.

Regarding `Cc1c(-c2ccc(F)c(Cl)c2)c(C(=O)N(C)CCS(C)(=O)=O)n(Cc2ccccc2)c1C(F)(F)F` [SC-252, 1-Benzyl-3-(3-chloro-4-fluoro-phenyl)-N,4-dimethyl-N-(2-methylsulfonyl-ethyl)-5-(trifluoromethyl)-1H-pyrrole-2-carboxylic acid amide], the inhibition at 3 µM was over 95%.

For `Cc1c(-c2ccc(F)c(Cl)c2)c(C(=O)N(C)C2CCOCC2)n(Cc2ccccc2)c1C(F)(F)F` [SC-253, 1-Benzyl-3-(3-chloro-4-fluoro-phenyl)-N,4-dimethyl-N-tetrahydro-pyran-4-yl-5-(trifluoromethyl)-1H-pyrrole-2-carboxylic acid amide], the inhibition at 3 µM is over 95%.

Regarding `Cc1c(-c2ccc(F)c(Cl)c2)c(C(=O)N(C)C2CC2)n(Cc2ccccc2)c1C(F)(F)F` [SC-254, 1-Benzyl-3-(3-chloro-4-fluoro-phenyl)-N-cyclopropyl-N,4-dimethyl-5-(trifluoromethyl)-1H-pyrrole-2-carboxylic acid amide], the inhibition at 3 µM is 75 to 95%.

On to `Cc1c(-c2ccc(F)c(Cl)c2)c(C(=O)N2CC(O)C2)n(Cc2ccccc2)c1C(F)(F)F` [SC-255, [1-Benzyl-3-(3-chloro-4-fluoro-phenyl)-4-methyl-5-(trifluoromethyl)-1H-pyrrol-2-yl]-(3-hydroxy-azetidin-1-yl)-methanone], for which the inhibition at 3 µM lay in the range of 40 to 75%.

`Cc1c(-c2ccc(F)c(Cl)c2)c(C(=O)N(C)CC(C)(C)C)n(Cc2ccccc2)c1C(F)(F)F` [SC-256, 1-Benzyl-3-(3-chloro-4-fluoro-phenyl)-N-(2,2-dimethyl-propyl)-N,4-dimethyl-5-(trifluoromethyl)-1H-pyrrole-2-carboxylic acid amide]: the inhibition at 3 µM was 30 to 40%.

On to `Cc1c(-c2ccc(F)c(Cl)c2)c(C(=O)N(C)C(C)(C)CO)n(Cc2ccccc2)c1C(F)(F)F` [SC-257, 1-Benzyl-3-(3-chloro-4-fluoro-phenyl)-N-(2-hydroxy-1,1-dimethyl-ethyl)-N,4-dimethyl-5-(trifluoromethyl)-1H-pyrrole-2-carboxylic acid amide], for which the inhibition at 3 µM lay in the range of 75 to 95%.

In the case of `Cc1c(-c2ccc(F)c(Cl)c2)c(C(=O)N2CCOC(C)(C)C2)n(Cc2ccccc2)c1C(F)(F)F` [SC-258, [1-Benzyl-3-(3-chloro-4-fluoro-phenyl)-4-methyl-5-(trifluoromethyl)-1H-pyrrol-2-yl]-(2,2-dimethyl-morpholin-4-yl)-methanone], the inhibition at 3 µM lay within 75 to 95%.

Consider `CN(CC(C)(C)C)C(=O)c1c(-c2ccc(Cl)cc2)c(S(C)(=O)=O)c(C(F)(F)F)n1Cc1ccccc1` [SC-259, 1-Benzyl-3-(4-chlorophenyl)-N-(2,2-dimethyl-propyl)-N-methyl-4-methylsulfonyl-5-(trifluoromethyl)-1H-pyrrole-2-carboxylic acid amide], for which the inhibition at 3 µM is 75 to 95%.

As to `Cc1c(-c2ccc(OCC(F)(F)F)cc2)c(C(=O)N(C)CC(C)(C)C)n(Cc2ccccc2)c1C(F)(F)F` [SC-260, 1-Benzyl-N,4-dimethyl-N-neopentyl-3-(4-(2,2,2-trifluoroethoxy)phenyl)-5-(trifluoromethyl)-1H-pyrrole-2-carboxamide], the inhibition at 3 µM lay in the range of 40 to 75%.

For `CN(CC(C)(C)C)C(=O)c1c(-c2ccc(Cl)cc2)cc(C(F)(F)F)n1Cc1ccc(F)cc1` [SC-261, 3-(4-Chlorophenyl)-N-(2,2-dimethyl-propyl)-1-[(4-fluorophenyl)-methyl]-N-methyl-5-(trifluoromethyl)-1H-pyrrole-2-carboxylic acid amide], the inhibition at 3 µM was in the range of 75 to 95%.

Take `Cc1c(-c2ccc(OC(F)(F)F)cc2F)c(C(=O)N2CCOCC2)n(Cc2ccccc2)c1C(F)(F)F` [SC-262, (1-benzyl-3-(2-fluoro-4-(trifluoromethoxy)phenyl)-4-methyl-5-(trifluoromethyl)-1H-pyrrol-2-yl)(morpholino)methanone]: the inhibition at 3 µM was 75 to 95%.

`Cc1c(-c2ccc(OCC(F)(F)F)cc2)c(C(=O)N2CCOCC2)n(Cc2ccccc2)c1C(F)(F)F` [SC-263, [1-Benzyl-4-methyl-3-[4-(2,2,2-trifluoro-ethoxy)-phenyl]-5-(trifluoromethyl)-1H-pyrrol-2-yl]-morpholin-4-yl-methanone]: the inhibition at 3 µM was 75 to 95%.

For `Cc1c(-c2ccc(C#N)cc2F)c(C(=O)N2CCOCC2)n(Cc2ccccc2)c1C(F)(F)F` [SC-264, 4-[1-Benzyl-4-methyl-2-(morpholine-4-carbonyl)-5-(trifluoromethyl)-1H-pyrrol-3-yl]-3-fluoro-benzonitrile], the inhibition at 3 µM lay within 75 to 95%.

Regarding `CN(CC(C)(C)C)C(=O)c1c(-c2ccc(Cl)cc2)cc(C(F)(F)F)n1Cc1cccc(S(C)(=O)=O)c1` [SC-266, 3-(4-Chlorophenyl)-N-(2,2-dimethyl-propyl)-N-methyl-1-[(3-methylsulfonyl-phenyl)-methyl]-5-(trifluoromethyl)-1H-pyrrole-2-carboxylic acid amide], the inhibition at 3 µM lay in the range of 75 to 95%.
